Laboratory results reported in the supplement of paper PMC10307832.

How the values were obtained:
Test in all cases: relative viability (nuclei count vs DMSO), 5 days (fraction); higher = more cells survive
Vemurafenib + Foretinib = compound: CCCS(=O)(=O)Nc1ccc(F)c(C(=O)c2c[nH]c3ncc(-c4ccc(Cl)cc4)cc23)c1F [Vemurafenib] + COc1cc2c(Oc3ccc(NC(=O)C4(C(=O)Nc5ccc(F)cc5)CC4)cc3F)ccnc2cc1OCCCN1CCOCC1 [Foretinib] (partner 0.25 µM)
Outline: (§1)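 Lung cancer cell lines, seeded in 1536-well plates, were treated the following day by pin tool with a single drug or with five library-drug doses (not always all listed) in √10 steps on top of a fixed anchor-drug dose. Cells were fixed and nuclei stained in one step after 5 days, and nuclei were counted. Relative viability is the nuclei count for treated wells divided by that for vehicle wells, reported as medians of duplicate plates.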

Vemurafenib + Pictilisib = compound: CCCS(=O)(=O)Nc1ccc(F)c(C(=O)c2c[nH]c3ncc(-c4ccc(Cl)cc4)cc23)c1F [Vemurafenib] + CS(=O)(=O)N1CCN(Cc2cc3nc(-c4cccc5[nH]ncc45)nc(N4CCOCC4)c3s2)CC1 [Pictilisib] (partner 1 µM)
Outline: as §1

OSI-027 + Navitoclax = compound: COc1cccc2cc(-c3nc([C@H]4CC[C@H](C(=O)O)CC4)n4ncnc(N)c34)[nH]c12 [OSI-027] + CC1(C)CCC(c2ccc(Cl)cc2)=C(CN2CCN(c3ccc(C(=O)NS(=O)(=O)c4ccc(N[C@H](CCN5CCOCC5)CSc5ccccc5)c(S(=O)(=O)C(F)(F)F)c4)cc3)CC2)C1 [Navitoclax] (partner 0.5 µM)
Outline: as §1

OSI-027 + Foretinib = compound: COc1cccc2cc(-c3nc([C@H]4CC[C@H](C(=O)O)CC4)n4ncnc(N)c34)[nH]c12 [OSI-027] + COc1cc2c(Oc3ccc(NC(=O)C4(C(=O)Nc5ccc(F)cc5)CC4)cc3F)ccnc2cc1OCCCN1CCOCC1 [Foretinib] (partner 0.25 µM)
Outline: as §1

Row | Cell Line | relative viability (Vemurafenib + Foretinib; first compound 0.03162 µM) | relative viability (Vemurafenib + Foretinib; first compound 0.1 µM) | relative viability (Vemurafenib + Foretinib; first compound 0.3162 µM) | relative viability (Vemurafenib + Foretinib; first compound 1 µM) | relative viability (Vemurafenib + Pictilisib; first compound 0.03162 µM) | relative viability (Vemurafenib + Pictilisib; first compound 0.1 µM) | relative viability (Vemurafenib + Pictilisib; first compound 1 µM) | relative viability (OSI-027 + Navitoclax; first compound 0.01 µM) | relative viability (OSI-027 + Navitoclax; first compound 0.03162 µM) | relative viability (OSI-027 + Navitoclax; first compound 0.1 µM) | relative viability (OSI-027 + Navitoclax; first compound 0.3162 µM) | relative viability (OSI-027 + Navitoclax; first compound 1 µM) | relative viability (OSI-027 + Foretinib; first compound 0.01 µM) | relative viability (OSI-027 + Foretinib; first compound 0.03162 µM) | relative viability (OSI-027 + Foretinib; first compound 0.1 µM) | relative viability (OSI-027 + Foretinib; first compound 0.3162 µM) | relative viability (OSI-027 + Foretinib; first compound 1 µM) | relative viability (Vemurafenib + Pictilisib; first compound 0.3162 µM)
1 | HCC-366 | 0.988 | 0.922 | 1.01 | 1 | 0.137 | 0.15 | 0.163 | 1.05 | 1.14 | 1.06 | 1.05 | 0.287 | 0.98 | 1.05 | 0.978 | 0.878 | 0.748 | 
2 | HCC-827 | 0.911 |  | 1.12 | 1.04 | 0.791 |  | 0.981 | 1.07 | 1.06 | 0.995 | 0.996 | 0.651 | 1.19 | 1.03 | 0.991 | 0.855 | 0.411 | 1.03
3 | HOP-62 | 1.06 | 1.08 | 0.916 | 1.05 | 0.739 | 0.589 | 0.458 | 1.11 | 1.09 | 1.02 | 1.13 | 0.646 | 1.19 | 1.09 | 1.02 | 1.14 | 0.541 | 0.517
4 | IA-LM | 1.16 | 1.26 | 1.08 | 0.981 | 0.309 | 0.358 | 0.476 | 0.873 | 0.572 | 0.481 | 0.182 | 0.0688 | 1.21 | 0.992 | 0.729 | 0.807 | 0.136 | 0.758
5 | LC-2-ad | 0.859 | 0.705 |  | 1.01 | 0.436 | 0.396 | 0.432 | 0.458 | 0.4 | 0.372 | 0.243 | 0.122 | 0.826 | 0.899 | 0.888 | 0.765 | 0.582 | 0.635
6 | LCLC-97TM1 | 0.974 | 0.854 | 0.985 | 0.971 | 0.195 | 0.194 | 0.149 | 0.36 | 0.331 | 0.381 | 0.214 | 0.159 | 0.969 | 0.927 | 0.994 | 0.584 | 0.432 | 0.39
7 | LCLC-103H | 0.668 | 0.685 | 0.704 | 0.69 | 0.585 | 0.506 | 0.59 |  |  |  |  |  | 0.693 | 0.658 | 0.786 | 0.666 | 0.334 | 0.584
8 | LK-2 | 1.37 | 0.913 | 1.09 | 0.915 | 0.618 | 0.49 | 0.425 | 0.774 | 0.781 | 0.69 | 0.372 | 0.238 | 1.13 | 1.2 | 1.13 | 0.778 | 0.195 | 0.661
9 | LOU-NH91 | 0.914 |  |  | 0.975 | 0.535 | 0.459 | 0.525 | 0.758 | 0.712 | 0.69 | 0.653 | 0.513 | 0.924 | 0.914 | 0.818 | 0.8 | 0.58 | 
